Legend:
PiAA7A = molecular target: T1, PiAA7A (Phytophthora infestans, UniProt D0MXI7); details: co-substrate O2; 25 mM MES pH 6, 20 °C, 1 nM enzyme; sigmoidal (allosteric) model
T1 construct: gene PITG_02928

PiAA7D = molecular target: T2, PiAA7D (Phytophthora infestans, UniProt D0N574); details: co-substrate O2; 25 mM MES pH 6, 20 °C, 1 nM enzyme; sigmoidal (allosteric) model
T2 construct: gene PITG_06591
T2 sequence (D0N574 27-508 limits assumed): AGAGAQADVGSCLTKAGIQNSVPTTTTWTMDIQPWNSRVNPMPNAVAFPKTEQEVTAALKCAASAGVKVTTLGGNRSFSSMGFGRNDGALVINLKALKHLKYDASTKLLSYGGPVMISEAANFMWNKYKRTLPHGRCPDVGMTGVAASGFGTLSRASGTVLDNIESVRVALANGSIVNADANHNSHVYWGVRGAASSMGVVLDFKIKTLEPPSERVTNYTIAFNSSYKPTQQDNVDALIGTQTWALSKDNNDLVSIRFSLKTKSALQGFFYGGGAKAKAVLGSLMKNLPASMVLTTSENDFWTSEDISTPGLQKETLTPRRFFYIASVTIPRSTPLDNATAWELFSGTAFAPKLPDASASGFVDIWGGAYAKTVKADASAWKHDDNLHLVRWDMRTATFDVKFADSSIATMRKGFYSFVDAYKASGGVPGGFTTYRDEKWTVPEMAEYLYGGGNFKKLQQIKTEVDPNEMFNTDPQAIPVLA

T1 sequence (D0MXI7 27-509 limits assumed): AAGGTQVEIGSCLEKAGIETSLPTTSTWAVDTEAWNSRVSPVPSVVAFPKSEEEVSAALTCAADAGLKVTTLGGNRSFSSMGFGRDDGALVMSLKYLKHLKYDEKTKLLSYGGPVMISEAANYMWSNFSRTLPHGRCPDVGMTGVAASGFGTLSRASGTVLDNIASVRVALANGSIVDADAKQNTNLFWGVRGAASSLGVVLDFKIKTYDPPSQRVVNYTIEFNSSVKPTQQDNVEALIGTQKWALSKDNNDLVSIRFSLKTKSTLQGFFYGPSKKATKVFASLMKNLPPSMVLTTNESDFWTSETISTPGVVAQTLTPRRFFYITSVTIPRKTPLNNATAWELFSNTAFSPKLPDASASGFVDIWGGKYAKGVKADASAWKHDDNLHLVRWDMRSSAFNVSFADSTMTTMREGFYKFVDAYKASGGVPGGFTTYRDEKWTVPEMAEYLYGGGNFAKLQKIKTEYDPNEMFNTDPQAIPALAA

Row | Structure (SMILES) | KM (PiAA7A) | KM (PiAA7D)
1 | O=C(O)[C@H]1O[C@H](O[C@@H]2[C@H](O)[C@@H](O)[C@@H](O[C@@H]3[C@H](O)[C@@H](O)C(O)O[C@@H]3C(=O)O)O[C@@H]2C(=O)O)[C@H](O)[C@@H](O)[C@H]1O (some centres unmarked) [OG3] | a sigmoidal (allosteric) model was found to be more appropriate for PiAA7A with OG3 | 
2 | O=C(O)[C@H]1O[C@H](O[C@@H]2[C@H](O)[C@@H](O)[C@@H](O[C@@H]3[C@H](O)[C@@H](O)[C@@H](O[C@@H]4[C@H](O)[C@@H](O)C(O)O[C@@H]4C(=O)O)O[C@@H]3C(=O)O)O[C@@H]2C(=O)O)[C@H](O)[C@@H](O)[C@H]1O (some centres unmarked) [OG4] |  | PiAA7D with OG4
